As usually defined, the EC50 is the concentration giving half of the maximal effect. Broadly, the Emax is the greatest response seen or fitted, relative to the assay's reference. What is called solubility is the dissolved amount per volume that the medium holds.

Here are results for two compounds from patent publication US12679878B2, “CRF2 receptor agonists and their use in therapy” (SANOFI, priority 2020, dated 2026).

Read-outs that look alike come from different tables or passages of the source. Starred links: 1 amine or outer side, 2 acyl side, 3 side chain; linkers in the order of their positions; H or OH if unused. Residues, ends and D or L forms follow the SMILES beside them. Groups on a side chain read outwards from the residue. *: point of attachment. C18 diacid = O=C(O)CCCCCCCCCCCCCCCCC(=O)*; γGlu = O=C(O)[C@H](CCC(=O)[*:2])N[*:1]; Palmitoyl = CCCCCCCCCCCCCCCC(=O)*; AEEA = NCCOCCOCC(=O)O Some results are limits rather than exact numbers.

Data set [1] addresses T1, human CRF2α receptor (Homo sapiens, UniProt Q13324).
T1 construct: expressed in transfected cells; host or cells: TeloHEAC
T1 sequence (Q13324 1-411): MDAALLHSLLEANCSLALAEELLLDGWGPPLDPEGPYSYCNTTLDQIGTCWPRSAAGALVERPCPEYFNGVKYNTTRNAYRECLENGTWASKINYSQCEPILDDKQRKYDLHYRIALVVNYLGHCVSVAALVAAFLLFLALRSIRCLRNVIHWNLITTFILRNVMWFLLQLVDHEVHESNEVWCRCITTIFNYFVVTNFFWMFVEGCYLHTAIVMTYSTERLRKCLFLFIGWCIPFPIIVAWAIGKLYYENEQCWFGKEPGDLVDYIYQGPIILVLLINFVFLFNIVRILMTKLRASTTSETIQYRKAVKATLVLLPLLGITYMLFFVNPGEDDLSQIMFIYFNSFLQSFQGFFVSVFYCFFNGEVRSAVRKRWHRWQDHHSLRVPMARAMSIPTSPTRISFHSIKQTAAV
Briefly: cAMP agonism at human CRF2 α receptor in TeloHEAC cells (Example 7). It counts as cell-based. To be noted: cAMP HTRF, TeloHEAC cells stably expressing human CRF2 α. The gist of the method:
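Steps: thaw and wash cells; suspend in 1×HBSS, 20 mM HEPES, 0 or 0.1% HSA, 2 mM IBMX; add compound, 30 min RT; lyse with HTRF reagents, 1 h; read 665/620 nm. EC50 calculated, E% versus 1000 nM UCN2.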
(In general: TR-FRET usually uses a lanthanide donor and a delayed reading to cut background.)

For data set [2], the target named is T2, CRF1R receptor (Homo sapiens, UniProt P34998).
T2 construct: host or cells: CHO-K1 clone 2
T2 sequence (P34998 24-415): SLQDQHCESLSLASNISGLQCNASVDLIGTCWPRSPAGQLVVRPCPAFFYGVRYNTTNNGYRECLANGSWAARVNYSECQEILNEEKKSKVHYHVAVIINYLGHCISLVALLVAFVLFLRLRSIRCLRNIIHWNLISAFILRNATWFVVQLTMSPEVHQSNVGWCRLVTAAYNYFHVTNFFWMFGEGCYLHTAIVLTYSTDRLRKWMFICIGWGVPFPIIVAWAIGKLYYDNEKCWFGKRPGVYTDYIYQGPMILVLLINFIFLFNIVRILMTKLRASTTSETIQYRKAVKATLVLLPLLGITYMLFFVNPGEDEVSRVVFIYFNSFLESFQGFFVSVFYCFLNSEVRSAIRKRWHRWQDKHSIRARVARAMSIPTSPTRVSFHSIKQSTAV
Briefly: cAMP activity at anti-target CRF1R, CRF1R-overexpression CHO cell line (Example 9). It counts as cell-based. The gist of the method: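 Using thawed CRF1R-overexpressing CHO cells at 2000 per well, compound is applied for 30 min at RT in HBSS/HEPES buffer with IBMX. Cellular cAMP content is determined via HTRF, and percent activity is calculated against 1000 nM UCN2 defined as 100%.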

Data set [3] in a line: Physical stability, Thioflavin T fibrillation assay (Example 14). It counts as physicochemical. As to conditions: 3 mg/ml, 37° C. shaking. An outline of the steps:
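Fibrillation tendency was judged from lag time and rise in Thioflavin T fluorescence, measured every 20 minutes over eight replicates per sample. Peptides at 3 mg/ml final were held at 37° C under cycles of 10 s shaking (960 rpm) and 50 s rest.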

Data set [4] is described as follows: Solubility in buffer systems by UPLC-UV (Example 13). It counts as physicochemical. The gist of the method: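 Quantitation used UV peak area from UPLC of the 1:10-diluted supernatant, set against a reference-compound standard curve with extinction coefficients adjusted for amino acid sequence.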
Data set [5] in a line: Chemical stability, purity loss by UPLC-UV after 28 days at 40° C. vs 5° C., pH 4.5 acetate buffer (Example 12). To be noted: 28 days 40° C. vs 5° C.; pH 4.5, 20 mM acetate buffer; 300 μM. It counts as physicochemical. On the procedure:
The chemical stability of the compounds was assessed by storing the compounds under various conditions and then determining the loss of purity by UPLC-UV.
Prior to measuring the chemical stability of a batch of test compound, the purity of the compound was determined through UPLC/MS. For stability testing the target concentration was 300 μM pure compound. Therefore, solutions from solid samples were prepared in a pH 4.5, 20 mM acetate buffer system with a concentration of 300 μM compound based on the previously determined % purity:
At the starting point, UPLC-UV was performed by injection of 2 μl of the undiluted sample. Aliquots were then stored for 28 days at temperatures of 5 and 40° C. […] Then 2 μl samples of the undiluted supernatant were analysed with UPLC-UV. The chemical stability was calculated by the equation: [(purity after 28 days at 5° C.)−(purity after 28 days at 40° C.)]/(purity after 28 days at 5° C.)]×100%. The purity was calculated as: [(peak area compound)/(total peak area)]×100%.

Data set [6] deals with rat CRF2R α receptor. Briefly: cAMP agonism at rat CRF2R α receptor in A7R5 rat aortic smooth muscle cells (Example 8). It counts as cell-based. As to conditions: cAMP HTRF, A7R5 rat aortic smooth muscle cell line, 0% HSA. The gist of the method: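 Potency (EC50) is the concentration reaching half-maximal activation, with responses scaled so that 1000 nM urocortin 2 equals 100%. Intracellular cAMP was quantified by homogeneous time-resolved fluorescence at 665/620 nm, 1 h after lysis-buffer reagents. Compound stimulation lasted 30 min at room temperature on 2000 IBMX-treated (2 mM) cells per well in HEPES-buffered HBSS.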

Where [7] appears, read: 0% HSA, read-out: EC50 [nM], 0% HSA.
The mark [8] stands for this setting: Buffer A: 100 mM acetate buffer, pH 4.5.
The mark [9] stands for this setting: Buffer B: 100 mM acetate buffer, pH 4.5, 2.7 mg/ml m-cresol.

Consider `CCCCCCCCCCCCCCCC(=O)N[C@@H](CCC(=O)NCCCC[C@H](NC(=O)[C@H](CC(C)C)NC(=O)CNC(=O)[C@@H](NC(=O)[C@@H]1CCCN1C(=O)[C@@H](NC(=O)[C@H](CC(=O)O)NC(=O)[C@H](CC(C)C)NC(=O)[C@H](CO)NC(=O)[C@H](CC(C)C)NC(=O)[C@@H](NC(=O)[C@@H](N)[C@@H](C)CC)C(C)C)C(C)C)[C@@H](C)CC)C(=O)N[C@@H](CCC(N)=O)C(=O)N[C@@H](CCCCN)C(=O)N[C@@H](CC(C)C)C(=O)N[C@@H](CC(C)C)C(=O)N[C@@H](CCCCN)C(=O)N[C@@H](CCC(N)=O)C(=O)N[C@@H](CCC(N)=O)C(=O)N[C@@H](CCCNC(=N)N)C(=O)N[C@@H](CCC(N)=O)C(=O)N[C@@H](CCCNC(=N)N)C(=O)N[C@@H](CCCCN)C(=O)N[C@@H](CCC(=O)O)C(=O)N[C@@H](CCCNC(=N)N)C(=O)N[C@@H](CCC(N)=O)C(=O)N[C@@H](CCC(N)=O)C(=O)N[C@@H](C)C(=O)N[C@@H](CCC(=O)O)C(=O)N[C@@H](CCCCN)C(=O)N[C@@H](CC(N)=O)C(=O)N[C@@H](C)C(=O)N[C@@H](CCCNC(=N)N)C(=O)N[C@H](C(=O)N[C@@H](CC(C)C)C(=O)N[C@@H](C)C(=O)N[C@@H](CCCNC(=N)N)C(=O)N[C@H](C(N)=O)C(C)C)[C@@H](C)CC)C(=O)O` [compound 6] (H-IVLSLDVPIGLK([γGlu-Palmitoyl])QKLLKQQRQRKERQQAEKNARILARV-NH2; N-terminus assumed), for which the EC50 in data set [1] (setting [7]) came out at 0.16 nM; in data set [1] (0.1% HSA, read-out: EC50 [nM], 0.1% HSA) it was 0.18 nM. Further, in data set [2] (CRF1R-overexpression CHO cell line, read-out: Emax (%)), the Emax was determined as 47.2%. Also, the “Increase in FI (fluorescence intensity)” value in data set [3] (setting [8]) and in data set [3] (setting [9]) was “No” in each case. Further, the “Lag time” value in data set [3] (setting [8]) and in data set [3] (setting [9]) was over 45 h throughout. Also, the solubility at 1 h in data set [4] (pH 4.5, Solubility in Buffer B [mg/ml]) was over 8500 µg/mL; in data set [4] (pH 7.4, Solubility in Buffer C [mg/ml]), over 8100 µg/mL. For the same compound, the “Relative purity loss [%]” value in data set [5] turned out to be 1.9%.
Take `CC[C@H](C)[C@H](N)C(=O)N[C@H](C(=O)N[C@@H](CC(C)C)C(=O)N[C@@H](CO)C(=O)N[C@@H](CC(C)C)C(=O)N[C@@H](CC(=O)O)C(=O)N[C@H](C(=O)N1CCC[C@H]1C(=O)N[C@H](C(=O)N[C@@H](CCCCN)C(=O)N[C@@H](CC(C)C)C(=O)N[C@@H](CCCCNC(=O)COCCOCCNC(=O)COCCOCCNC(=O)CC[C@H](NC(=O)CCCCCCCCCCCCCCCCC(=O)O)C(=O)O)C(=O)N[C@@H](CCC(N)=O)C(=O)N[C@H](C(=O)N[C@@H](CC(C)C)C(=O)N[C@@H](CC(C)C)C(=O)N[C@@H](CCCCN)C(=O)N[C@@H](CCC(N)=O)C(=O)N[C@@H](CCC(=O)O)C(=O)N[C@@H](CCCNC(=N)N)C(=O)N[C@@H](CCC(N)=O)C(=O)N[C@@H](CCCCN)C(=O)N[C@@H](CCCCN)C(=O)N[C@@H](CCC(N)=O)C(=O)N[C@@H](CCCNC(=N)N)C(=O)N[C@@H](CCC(N)=O)C(=O)N[C@@H](CCCCN)C(=O)N[C@@H](C)C(=O)N[C@@H](CCC(=O)O)C(=O)N[C@H](C(=O)N[C@@H](CC(N)=O)C(=O)N[C@@H](CCCCN)C(=O)N[C@@H](CCC(N)=O)C(=O)N[C@H](C(=O)N[C@@H](CC(C)C)C(=O)N[C@@H](C)C(=O)N[C@@H](CCC(N)=O)C(=O)N[C@H](C(N)=O)C(C)C)[C@@H](C)CC)[C@@H](C)O)[C@@H](C)CC)[C@@H](C)CC)C(C)C)C(C)C` [compound 77] (H-IVLSLDVPIKLK([AEEA-AEEA-γGlu-C18 diacid])QILLKQERQKKQRQKAETNKQILAQV-NH2): the EC50 in data set [6] worked out at 3.26 nM; in data set [1] (setting [7]), 0.33 nM. The compound also had an Emax in data set [2] (CHO) of 1.56%. In addition, the “Increase in FI (fluorescence intensity)” value in data set [3] (setting [9]) is recorded as “Yes”. Further, the “Lag time” value in data set [3] (setting [9]) lay in the range of 23.0 to 29.7 h. Also, the solubility at 1 h in data set [4] (Buffer B: 100 mM acetate buffer, pH 4.5, 2.7 mg/ml m-cresol, target 10 mg/ml, read-out: Solubility in Buffer B) was over 8000 µg/mL; in data set [4] (Buffer C: 100 mM phosphate buffer, pH 7.4, target 10 mg/ml, read-out: Solubility in Buffer C), over 9000 µg/mL. In data set [5], the “Relative purity loss [%]” value was 3.60%.
